Experimental data reported in patent publication US20080070256A1, “Non-Human Animal Models for B-cell Non-Hodgkin's Lymphoma and Uses Thereof” (NATIONAL JEWISH MEDICAL AND RESEARCH CENTER, priority 2006, published 2008).

How the values were obtained:
[1] = tested on: murine BL cell lines (TBL-1, TBL-8, TBL-9, TBL-14); experiment: MTS viability assay, murine BL cell lines; assay type: cell-based, mouse; settings: 24 hours
Description: (§1) The inventors obtained a highly specific pharmacological inhibitor of Syk through a collaboration with Rigel Pharmaceuticals. […] Also tested were the effects of the Syk kinase inhibitor on primary murine BL the inventors obtained from triply transgenic mice (Example 2). In addition, the effects of R408 were tested on three cell lines derived from human BL tumors (Raji, Ramos and Daudi). […] The cells and drug were incubated at a final volume of 200 μl in each well. Each condition was set up in triplicate wells, in any one experiment. […] The plates were read with a Molecular Dynamics ELISA plate reader, at OD 490. The data presented in FIGS. 29A-29D is from one experiment, representative of three independent assays. The error bars represent the standard deviations. […] The cells were cultured for 22 hours with the compound, and pulsed for the last 2 hours with MTS reagent. The O.D.490 absorbance of the wells was determined 24 hours after the beginning of the experiment. All conditions were tested in triplicate wells. The error bars represent the standard deviations of the triplicate wells.
Using this approach, four primary tumors derived from Eμ-MYC/BCR^HEL/sHEL mice have been tested, three cell lines derived from such tumors (TBL-1, TBL-8 and TBL-14), as well as a T-cell lymphoma cell line (iTLS-10). […] The cells were incubated for an MTS assay as described elsewhere herein. […]

[2] = tested on: tumors derived from Eμ-MYC mice; experiment: In vivo drug candidate test, transplanted Eμ-MYC tumors (no surface BCR); set-up: species or system mouse; settings: treated for 7 days, starting 21 days after transplant
Text: (§2) Cohorts of age and sex matched, syngeneic mice (C57/BL6) are given transplants of tumor cells administered by tail vein injection (inoculum ranges from 10^2-10^6 cells, but all of the mice in one cohort usually get the same dose of cells). The mice are observed daily for 14-21 days for presentation of externally evident clinical signs of hematological malignancies. These include splenomegaly and lymphadenopathy, dehydration, scruffy fur, hunched posture, labored breathing, and an ascending hind limb paralysis. When the mice are visibly sick, they begin treatment with the drug candidate. The mice are either analyzed 24 hours after the last dose of drug in order to ascertain the degree of remission caused by the drug, in an acute manner, or left in the vivarium to determine the extent of survival that is afforded by the treatment, over the normal rate of mortality for untreated, tumor-bearing mice.
In this experiment, cohorts of 10 mice each were given transplants of tumors derived from Eμ-MYC mice.

[3] = tested on: Raji cells; experiment: Apoptosis of Raji cells by propidium iodide stain (subdiploid population); assay type: cell-based, human; settings: exposure in vitro
Text: In order to validate the observations obtained in the mouse models of BL, the inventors tested whether the pharmacological inhibition of Syk in a human BL cell line (Raji) also results in the reduced viability of those cells. […] Similar results are observed upon the shRNA-mediated disruption of Syk expression in Raji cells.

[4] = tested on: Raji cells; experiment: MTS viability assay on Raji cells; assay type: cell-based, human; settings: increasing concentrations
Description: as §1
In order to validate the observations obtained in the mouse models of BL, the inventors tested whether the pharmacological inhibition of Syk in a human BL cell line (Raji) also results in the reduced viability of those cells. […]

[5] = tested on: tumors derived from Eμ-MYC/BCR^HEL/sHEL mice; experiment: In vivo drug candidate test, transplanted murine BL tumors; set-up: species or system mouse; settings: transient 7 day treatment, starting 20 days after transplant
Text: as §2
In another experiment, depicted in FIG. 33, cohorts of 10 mice each were given transplants of tumors derived from Eμ-MYC/BCR^HEL/sHEL (resemble human BL) mice. 20 days later, when the mice presented externally evident signs of disease, they were treated for 7 days with R788. This cohort was observed over time for kinetics and time frame of mortality following transient treatment with R788.

[6] = tested on: tumors derived from Eμ-MYC/BCR^HEL mice; experiment: In vivo drug candidate test, transplanted murine B-CLL tumors; set-up: species or system mouse
Description: In this experiment, cohorts of 20 mice each were given transplants of tumors derived from Eμ-MYC/BCR^HEL (resemble human B-CLL) mice. […] Part of the cohort was euthanized and evaluated for remission acutely (left set of graphs).

[7] = tested on: Eμ-MYC/BCR^HEL tumors; experiment: Therapeutic trial on transplanted Eμ-MYC/BCR^HEL tumors (B-CLL model); assay type: in vivo, mouse; settings: daily intravenous injections for 7 days
Description: Groups of 6 mice were utilized for each of the experimental protocols. Four mice bearing transplanted tumors, and two age and sex matched wild type mice were treated with the same drug and equal frequency. The transplant recipient mice were held until tumors became clinically apparent (approximately 100 days for the Eμ-MYC tumors, 58 days for the Eμ-MYC/BCR^HEL tumors, 21 days for the Eμ-MYC/BCR^HEL/sHEL tumors, and 14 days for the MMTV-rtTA/TRE-MYC/BCR^HEL/sHEL tumors). The mice then received daily injections of the indicated agents for 7 days, as applicable. Mice were either euthanized 24 hours after the last injection of drug, or held indefinitely to ascertain survival. Lymph nodes, spleens and bone marrows were collected and processed to generate single cell suspensions. The cells were counted as described above. An aliquot from the cell suspensions was stained with antibodies for B220, Thy 1.2, Mac-1, IgM^a, B7-2, and CD69, in order to determine the proportion of B-cells, T-cells and myeloid cells, as well as the activation status of the HEL-reactive B-cells. Treatments were performed with cyclosporin A (Bedford laboratories, Bedford Ohio) (2 mg/kg/day), FK506 (Prograf, Fujisawa Healthcare, Deerfield, Ill.) (2 mg/kg/day), rapamycin (Biomol, King of Prussia, Pa.) (2 mg/kg/day), and cyclophosphamide (1 mg/kg/day) (Bristol-Myers Squibb, Princeton, N.J.). […]

[8] = tested on: MMTV-rtTA/TRE-MYC/BCR^HEL/sHEL tumors (FLL); settings: mouse, in vivo
Description: (§3) Tumor cells were harvested from lymph nodes and spleens and transplanted. The recipient mice were held until tumors became clinically apparent. Tumor recipient (clear bars) and wild type (filled bars) mice then received daily injections of the indicated drugs for 7 days of either cyclosporine A (csa), FK506, rapamycin (rap) or cyclophosphamide (cyph). The mice were euthanized 24 hours after the last injection of drug, and lymph nodes were harvested for analysis of either total number of cells or surface markers of donor cells (not shown).
(§4) Tumor cells were harvested from lymph nodes and spleens and transplanted as described. The recipient mice were held until tumors became clinically apparent. The mice were then either maintained on a normal mouse diet, or switched on to a diet containing doxycycline, that shut off MYC overexpression. The mice were euthanized at the indicated times, and the lymph nodes were collected, used to generate single cell suspensions, cell counts and flow cytometric analysis.
(§5) Groups of 6 mice were utilized for each of the experimental protocols. Four mice bearing transplanted tumors, and two age and sex matched wild type mice were treated with the same drug and equal frequency. The transplant recipient mice were held until tumors became clinically apparent (approximately 100 days for the Eμ-MYC tumors, 58 days for the Eμ-MYC/BCR^HEL tumors, 21 days for the Eμ-MYC/BCR^HEL/sHEL tumors, and 14 days for the MMTV-rtTA/TRE-MYC/BCR^HEL/sHEL tumors). The mice then received daily injections of the indicated agents for 7 days, as applicable. Mice were either euthanized 24 hours after the last injection of drug, or held indefinitely to ascertain survival. Lymph nodes, spleens and bone marrows were collected and processed to generate single cell suspensions. The cells were counted as described above. An aliquot from the cell suspensions was stained with antibodies for B220, Thy 1.2, Mac-1, IgM^a, B7-2, and CD69, in order to determine the proportion of B-cells, T-cells and myeloid cells, as well as the activation status of the HEL-reactive B-cells. Treatments were performed with cyclosporin A (Bedford laboratories, Bedford Ohio) (2 mg/kg/day), FK506 (Prograf, Fujisawa Healthcare, Deerfield, Ill.) (2 mg/kg/day), rapamycin (Biomol, King of Prussia, Pa.) (2 mg/kg/day), and cyclophosphamide (1 mg/kg/day) (Bristol-Myers Squibb, Princeton, N.J.). The therapeutics were suspended in PBS, sterilized by filtration through a 0.22 μm membrane, and administered intravenously through the tail vein.
(§6) 10^6 cells obtained from tumor-bearing spleen or lymph nodes were transplanted into cohorts of 4-10 mice. […] The tumor bearing and control wild-type mice were then treated daily for seven days with intravenous injections of the various drugs. Mice were either euthanized 24 hours after the last injection of drug, or held indefinitely to ascertain survival. The analysis of tumor burden was performed with cells obtained from lymph nodes and spleens.

[9] = tested on: MMTV-rtTA/TRE-MYC/BCR^HEL/sHEL tumors (DLBCL); settings: mouse, in vivo
Description: as §3, §4, §5, §6

[10] = tested on: Eμ-MYC, Eμ-MYC/BCR^HEL/sHEL and MMTV-rtTA/TRE-MYC/BCR^HEL/sHEL jaw tumors; settings: mouse, in vivo
Description: as §5

[11] = tested on: Eμ-MYC/BCR^HEL/sHEL tumors
Description: as §5, §6

[12] = tested on: tumors from the jaws of MMTV-rtTA/TRE-MYC/BCR^HEL/sHEL mice; settings: daily intravenous injections for 7 days
Description: as §5, §6

[13] = tested on: Eμ-MYC tumors
Description: Adoptive transfers of cells and transplantation of tumors were done by injecting 10^6 cells intravenously (unless otherwise indicated) into syngeneic (C57/BL6) females ranging in age from 4-6 weeks.
Groups of 6 mice were utilized for each of the experimental protocols. Four mice bearing transplanted tumors, and two age and sex matched wild type mice were treated with the same drug and equal frequency. The transplant recipient mice were held until tumors became clinically apparent (approximately 100 days for the Eμ-MYC tumors, 58 days for the Eμ-MYC/BCR^HEL tumors, 21 days for the Eμ-MYC/BCR^HEL/sHEL tumors, and 14 days for the MMTV-rtTA/TRE-MYC/BCR^HEL/sHEL tumors). The mice then received daily injections of the indicated agents for 7 days, as applicable. Mice were either euthanized 24 hours after the last injection of drug, or held indefinitely to ascertain survival. Lymph nodes, spleens and bone marrows were collected and processed to generate single cell suspensions. The cells were counted as described above. An aliquot from the cell suspensions was stained with antibodies for B220, Thy 1.2, Mac-1, IgM^a, B7-2, and CD69, in order to determine the proportion of B-cells, T-cells and myeloid cells, as well as the activation status of the HEL-reactive B-cells. […] The therapeutics were suspended in PBS, sterilized by filtration through a 0.22 μm membrane, and administered intravenously through the tail vein.
10^6 cells obtained from tumor-bearing spleen or lymph nodes were transplanted into cohorts of 4-10 mice. The recipient mice were held for observation until they developed externally obvious lymphadenopathy (approximately 100 days for the Eμ-MYC tumors, 58 days for the Eμ-MYC/BCR^HEL tumors. The tumor bearing and control wild-type mice were then treated daily for seven days with intravenous injections of the various drugs. Mice were either euthanized 24 hours after the last injection of drug, or held indefinitely to ascertain survival. The analysis of tumor burden was performed with cells obtained from lymph nodes and spleens.

[14] = daily intravenous injections for 7 days

## COc1cc(Nc2ncc(F)c(Nc3ccc4c(n3)NC(=O)C(C)(C)O4)n2)cc(OC)c1OC [R406]
[1]
  cell viability (MTS): susceptible
[2]
  survival of tumor-bearing mice: does not extend the survival
[3]
  apoptosis (subdiploid population, propidium iodide): undergo apoptosis
[4]
  viability of Raji cells (MTS): dose response decrease in viability

## COc1cc(Nc2ncc(F)c(Nc3ccc4c(n3)N(COP(=O)(O)O)C(=O)C(C)(C)O4)n2)cc(OC)c1OC [R788]
[2]
  survival of tumor-bearing mice: perished at the same rate and time frame as their untreated, tumor-bearing counterparts
[5]
  survival versus untreated counterparts: at least twice as long
[6]; transient 7 day treatment
  survival versus untreated counterparts: twice as long
[6]; treated for 7 days, starting 24 days after transplant
  tumor burden (number of cells in lymph nodes and spleens): significantly decreased the tumor burden

## O=P1(N(CCCl)CCCl)NCCCO1 (stereo not shown) [cyclophosphamide]
[7]
  response of transplanted Eμ-MYC/BCR^HEL tumors to drug: responded
[8]
  remission: brief remission
  survival compared with untreated tumor-bearing mice: died more rapidly than did untreated, tumor-bearing mice
[8]; iv
  response of transplanted MMTV-rtTA/TRE-MYC/BCR^HEL/sHEL tumors to drug: responded
[9]
  remission: brief remission
  survival compared with untreated tumor-bearing mice: died more rapidly than did untreated, tumor-bearing mice
[9]; iv
  response of transplanted MMTV-rtTA/TRE-MYC/BCR^HEL/sHEL tumors to drug: responded
[10]
  general cytotoxicity (reduction in T cells, myeloid cells, non-transgenic B cells): more general cytotoxicity
  response of the transplanted tumors to drug: strong response
  tumor regression: tumor regression in each instance
[11]; after seven-day treatment
  remission: brief remission
[11]; after seven-day treatment, observed 100 days
  survival compared with untreated tumor-bearing mice: died more rapidly than did untreated, tumor-bearing mice
[11]; [14]
  response of transplanted Eμ-MYC/BCR^HEL/sHEL tumors to drug: responded
[12]
  response of transplanted MMTV-rtTA/TRE-MYC/BCR^HEL/sHEL jaw tumors to drug: responded
[13]; [14]
  tumor regression: tumor regression in all animals
[13]; daily intravenous injections for 7 days, analysed 24 hours after last injection
  response of transplanted Eμ-MYC tumors to drug (tumor burden, lymph nodes and spleens): strong response
[13]; tumor-bearing mice, 7 days treatment
  general cytotoxicity (reduction in T-cells, myeloid cells, non-transgenic B-cells): more general cytotoxicity
